Measurements: patent publication US20240173329A1, “BELVARAFENIB FOR USE IN TREATMENT OF BRAIN CANCERS” (Genentech, Inc., priority 2021, published 2024)
Where two headings read alike, the source gives them in different places.

What was measured:
[1] = target: RAF-1 (CRAF) (Homo sapiens, UniProt P04049); experiment: RAF kinase inhibition in vitro; type: biochemical
[2] = target: T1, discoidin domain receptor tyrosine kinase 2 (DDR2) (Homo sapiens, UniProt Q16832); experiment: panel of 189 kinase assays; type: biochemical
T1 sequence (Q16832 22-855): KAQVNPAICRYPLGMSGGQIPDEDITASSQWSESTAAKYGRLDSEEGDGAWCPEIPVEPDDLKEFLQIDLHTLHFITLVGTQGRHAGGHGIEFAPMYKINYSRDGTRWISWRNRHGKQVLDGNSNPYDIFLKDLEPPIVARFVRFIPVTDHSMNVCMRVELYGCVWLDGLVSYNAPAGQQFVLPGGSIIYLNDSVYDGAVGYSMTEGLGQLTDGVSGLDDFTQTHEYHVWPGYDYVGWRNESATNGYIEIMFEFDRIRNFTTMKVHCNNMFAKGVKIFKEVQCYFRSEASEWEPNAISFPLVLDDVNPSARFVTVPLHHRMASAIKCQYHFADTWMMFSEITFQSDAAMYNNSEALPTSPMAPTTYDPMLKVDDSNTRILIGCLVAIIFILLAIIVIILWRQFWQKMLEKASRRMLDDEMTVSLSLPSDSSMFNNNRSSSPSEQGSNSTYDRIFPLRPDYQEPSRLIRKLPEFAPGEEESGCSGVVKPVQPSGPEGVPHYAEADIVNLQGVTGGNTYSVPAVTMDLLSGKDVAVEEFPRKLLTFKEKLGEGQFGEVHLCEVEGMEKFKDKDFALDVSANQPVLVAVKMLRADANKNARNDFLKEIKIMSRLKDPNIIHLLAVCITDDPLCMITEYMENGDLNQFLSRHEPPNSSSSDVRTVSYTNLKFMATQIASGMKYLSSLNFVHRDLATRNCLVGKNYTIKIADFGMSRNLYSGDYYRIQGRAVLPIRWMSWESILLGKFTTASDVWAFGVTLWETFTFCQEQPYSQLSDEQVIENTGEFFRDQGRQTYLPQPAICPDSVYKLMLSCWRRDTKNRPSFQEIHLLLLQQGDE

[3] = target: EPHA2 (Homo sapiens, UniProt P29317); experiment: panel of 189 kinase assays; type: biochemical
[4] = target: EPHA7 (Homo sapiens, UniProt Q15375); experiment: panel of 189 kinase assays; type: biochemical
[5] = Phase I relative bioavailability and food effect study in healthy subjects; type: in vivo; details: 200 mg single dose
Description: In another Phase I, single dose, randomized, crossover relative bioavailability and food effect study in healthy subjects, the influence of a formulation change from the Phase I to Phase II tablet on belvarafenib exposure was evaluated. A total of 18 healthy subjects were enrolled in the study and received the following randomized treatments: one 150-mg and one 50-mg Phase I tablet in a fed state, two 100-mg Phase II tablets in a fed state, or two 100-mg Phase II tablets in a fasted state, with an 18-day washout between treatments. There was a positive effect of food on belvarafenib exposure in the fed state compared to the fasted state.

[6] = Pharmacokinetic profile and brain distribution in mice after oral administration; type: in vivo, mice (ICR); details: for Kp / Cmax / Tmax / AUC(0-t) / MRT last / half-life / AUC(0-inf): ICR (CD-1), mouse
Description: Example 1 evaluated pharmacokinetic profile and brain distribution of belvarafenib in mice after oral administration.
The mouse strain was ICR (CD-1®) supplied by Orient Bio Inc., Korea.
The mice were kept in conventional animal lab cages for 5 days for acclimation before the start of the experiment. The cages were polysulfone 1291H (W425×D266×H185 mm, Techniplast, Italy). Twelve mice were housed in each cage at a temperature of 22±2° C., a relative humidity of 50±20%, a ventilation frequency of 10-15 times/h, a 12 hour light/dark cycle, a light intensity of 150-300 Lux, at least weekly cage replacement. The mice were fed Picolab Rodent diet (5053, Lab Diet, USA) with abundant tap water.
The mice were dosed with belvarafenib dihydrochloride, 99.6% purity, that was stored at room temperature. Dosing was based on active ingredient free base and was corrected for assay and water content. The dosing vehicle was DMSO (5%), cremophore EL (5%), and deionized water (90%). Belvarafenib for dosing (28.08 mg) was dissolved in 14.40 mL of the vehicle for a final concentration of 1.950 mg/mL.
In a single one day dosing regimen, mice were fasted overnight. The body weight of the mice was measured on the day of treatment, from which dosing volumes were set. […] The mice were fed 4 hours post-dose.
Blood (0.3 mL) was collected from the retro-orbital plexus at 0.5, 1, 2, 4, 7, 24, 48, and 72 hours after belvarafenib administration. Plasma was obtained by centrifugation at 12,000 rpm for 2 minutes (Eppendorf) and then harvested and stored at −20° C. (Panasonic, MDF-U334-PK) until analysis.
After bloodletting of mice at each time point, the brain was collected immediately without perfusion. Brain tissue was washed one to two times with saline to remove surface blood. The brains were then trimmed. The collected brain tissue was accurately weighed and mixed with 4-fold saline based on brain weight (a final dilution factor of 5-fold). Each brain sample was then homogenized and placed in a 1.5 mL tube and stored at −20° C. (Panasonic, MDF-U334-PK) until analysis.
Plasma and brain of untreated animals were similarly obtained for use as a blank matrix.
Plasma and brain concentrations of belvarafenib determined by analysis using LC-MS/MS (Waters UPLC H-Class/Xevo TQ (Waters USA)).
Pharmacokinetic parameters of belvarafenib were calculated from plasma and brain concentration-time data by a non-compartmental method using Phoenix™ WinNonlin 8.1 (Certara, USA). The peak plasma and brain concentration (Cmax) and the corresponding time (Tmax) were directly obtained from the raw data. The area under the plasma curve (AUClast) was obtained by linear-log trapezoidal summation. Other PK parameters such as AUC from dosing time extrapolated to infinity (AUCinf), half-life (t1/2) and mean residence time (MTRlast) were calculated using WinNonlin. The plasma and brain concentrations of belvarafenib were presented as MEAN±S.D. The brain to plasma (B/P) ratio of Belvarafenib was calculated by dividing AUClast in the brain by AUClast in the plasma.

Sequence of RAF-1 (CRAF) (P04049 whole entry, the tested form may be a part): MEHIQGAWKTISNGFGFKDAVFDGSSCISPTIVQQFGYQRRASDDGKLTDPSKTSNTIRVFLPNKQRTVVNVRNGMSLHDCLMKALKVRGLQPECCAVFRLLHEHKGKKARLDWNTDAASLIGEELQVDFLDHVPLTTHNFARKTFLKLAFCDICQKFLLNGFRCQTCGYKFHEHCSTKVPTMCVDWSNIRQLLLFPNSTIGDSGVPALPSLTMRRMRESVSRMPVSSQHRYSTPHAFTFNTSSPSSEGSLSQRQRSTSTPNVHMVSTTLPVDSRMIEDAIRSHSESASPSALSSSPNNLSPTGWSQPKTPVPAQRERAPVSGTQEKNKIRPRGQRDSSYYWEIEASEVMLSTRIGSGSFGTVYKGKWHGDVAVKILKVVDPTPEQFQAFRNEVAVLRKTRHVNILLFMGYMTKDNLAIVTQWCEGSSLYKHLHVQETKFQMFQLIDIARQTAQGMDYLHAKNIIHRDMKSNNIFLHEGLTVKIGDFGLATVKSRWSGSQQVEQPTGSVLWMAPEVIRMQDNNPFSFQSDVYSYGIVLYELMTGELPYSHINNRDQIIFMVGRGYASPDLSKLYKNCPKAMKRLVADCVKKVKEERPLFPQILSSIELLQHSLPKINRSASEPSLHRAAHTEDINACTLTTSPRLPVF
Sequence of EPHA7 (Q15375 28-998, species assumed): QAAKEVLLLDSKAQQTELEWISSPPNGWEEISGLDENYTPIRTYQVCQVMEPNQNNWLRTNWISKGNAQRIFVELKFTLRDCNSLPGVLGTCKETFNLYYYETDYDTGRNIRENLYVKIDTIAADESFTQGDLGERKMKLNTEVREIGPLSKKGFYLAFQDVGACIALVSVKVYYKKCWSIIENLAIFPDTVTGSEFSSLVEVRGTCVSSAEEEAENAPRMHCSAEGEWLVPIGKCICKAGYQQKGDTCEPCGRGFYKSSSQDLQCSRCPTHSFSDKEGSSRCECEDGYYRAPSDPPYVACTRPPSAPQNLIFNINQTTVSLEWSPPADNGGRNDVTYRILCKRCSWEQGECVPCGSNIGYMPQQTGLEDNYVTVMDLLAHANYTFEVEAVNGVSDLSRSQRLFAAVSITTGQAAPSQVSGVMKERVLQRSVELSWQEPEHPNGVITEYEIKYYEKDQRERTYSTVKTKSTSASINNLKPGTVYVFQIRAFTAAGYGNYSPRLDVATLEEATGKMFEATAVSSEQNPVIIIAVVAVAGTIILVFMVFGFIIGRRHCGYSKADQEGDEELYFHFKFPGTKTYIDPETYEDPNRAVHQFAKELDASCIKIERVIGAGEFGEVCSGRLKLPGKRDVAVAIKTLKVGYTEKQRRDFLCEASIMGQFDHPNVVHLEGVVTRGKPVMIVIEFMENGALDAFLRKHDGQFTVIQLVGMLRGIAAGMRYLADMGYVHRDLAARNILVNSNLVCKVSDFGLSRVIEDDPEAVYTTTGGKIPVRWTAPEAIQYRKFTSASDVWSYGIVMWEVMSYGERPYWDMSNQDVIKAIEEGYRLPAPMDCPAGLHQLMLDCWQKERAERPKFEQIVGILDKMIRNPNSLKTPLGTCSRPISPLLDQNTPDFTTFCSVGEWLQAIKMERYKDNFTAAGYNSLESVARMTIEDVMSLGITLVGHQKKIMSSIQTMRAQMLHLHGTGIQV
Sequence of EPHA2 (P29317 24-976, species assumed): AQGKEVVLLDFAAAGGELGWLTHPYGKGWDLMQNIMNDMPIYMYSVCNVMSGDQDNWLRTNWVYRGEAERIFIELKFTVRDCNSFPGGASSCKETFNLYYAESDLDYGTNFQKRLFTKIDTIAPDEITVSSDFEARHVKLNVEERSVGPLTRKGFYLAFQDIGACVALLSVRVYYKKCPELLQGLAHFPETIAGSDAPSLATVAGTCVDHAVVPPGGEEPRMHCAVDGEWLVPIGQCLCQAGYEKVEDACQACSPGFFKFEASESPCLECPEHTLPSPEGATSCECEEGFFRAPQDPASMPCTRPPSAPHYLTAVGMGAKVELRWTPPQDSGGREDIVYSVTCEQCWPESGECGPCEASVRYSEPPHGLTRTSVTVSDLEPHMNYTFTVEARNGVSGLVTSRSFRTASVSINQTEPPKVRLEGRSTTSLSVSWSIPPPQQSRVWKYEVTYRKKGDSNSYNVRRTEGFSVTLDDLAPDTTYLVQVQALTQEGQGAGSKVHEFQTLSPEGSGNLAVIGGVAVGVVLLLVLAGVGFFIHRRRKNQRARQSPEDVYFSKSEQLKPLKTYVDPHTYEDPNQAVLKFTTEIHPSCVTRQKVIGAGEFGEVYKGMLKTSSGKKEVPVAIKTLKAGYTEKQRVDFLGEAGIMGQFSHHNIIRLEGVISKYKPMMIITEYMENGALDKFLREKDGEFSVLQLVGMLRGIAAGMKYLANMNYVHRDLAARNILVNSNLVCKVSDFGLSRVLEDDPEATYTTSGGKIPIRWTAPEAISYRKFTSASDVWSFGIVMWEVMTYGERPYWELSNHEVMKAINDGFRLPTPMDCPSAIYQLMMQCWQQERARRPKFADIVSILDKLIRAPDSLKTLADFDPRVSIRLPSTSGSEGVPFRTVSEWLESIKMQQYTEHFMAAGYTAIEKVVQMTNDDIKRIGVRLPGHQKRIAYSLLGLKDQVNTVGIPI

**Q.** What does the source list for `Cc1ccc2c(Nc3cccc(Cl)c3F)nccc2c1NC(=O)c1csc2c(N)ncnc12` [Belvarafenib, 4-amino-N-(1-((3-chloro-2-fluorophenyl)amino)-6-methylisoquinolin-5-yl)thieno[3,2-d]pyrimidine-7-carboxamide]?
**A.** IC50 [1]: 2 nM; inhibition at 1 µM [2]: > 90%; inhibition at 1 µM [3]: > 90%; inhibition at 1 µM [4]: > 90%; AUC0-inf increase, fed state compared to fasted state [5]: ~2.8 fold; Cmax increase, fed state compared to fasted state [5]: approximately 2.2 fold; adverse events [5]: No serious adverse events, adverse events of special interest, or deaths were reported; Kp ([6]; oral 30 mg/kg, AUClast brain / AUClast plasma, read-out: B/P ratio): 0.8; Cmax ([6]; oral 30 mg/kg, brain): 6100 ng/g; Tmax ([6]; oral 30 mg/kg, brain): 7 h; AUC(0-t) ([6]; oral 30 mg/kg, plasma): 133 µg·h/mL; Cmax ([6]; oral 30 mg/kg, plasma): 6210 ng/mL; Tmax ([6]; oral 30 mg/kg, plasma): 7 h; Kp ([6]; male, brain/plasma, oral, 15 mg/kg, read-out: B/P): 0.93; MRT last ([6]; male, in vivo, oral 15 mg/kg, plasma): 14.3 h; Kp ([6]; male, oral 15 mg/kg, AUClast brain / AUClast plasma, read-out: B/P ratio): 0.929; Cmax ([6]; male, oral 15 mg/kg, brain): 5240 ng/g; MRT last ([6]; male, oral 15 mg/kg, brain): 11.8 h; Tmax ([6]; male, oral 15 mg/kg, brain): 7 h; half-life ([6]; male, oral 15 mg/kg, brain): 6.3 h; AUC(0-inf) ([6]; male, oral 15 mg/kg, plasma): 84.3 µg·h/mL; AUC(0-t) ([6]; male, oral 15 mg/kg, plasma): 84.3 µg·h/mL; Cmax ([6]; male, oral 15 mg/kg, plasma): 4780 ng/mL; Tmax ([6]; male, oral 15 mg/kg, plasma): 4 h; half-life ([6]; male, oral 15 mg/kg, plasma): 6.6 h; AUC(0-inf) ([6]; male, oral 30 mg/kg, plasma): 133 µg·h/mL; AUC(0-t) ([6]; male, oral 30 mg/kg, plasma): 133 µg·h/mL; AUCinf ([6]; oral 15 mg/kg, brain): 78297.5 ng·h/g; AUClast ([6]; oral 15 mg/kg, brain): 78259.6 ng·h/g; AUCinf ([6]; oral 30 mg/kg, brain): 100848.0 ng·h/g; AUClast ([6]; oral 30 mg/kg, brain): 100735.8 ng·h/g; general clinical signs ([6]; single oral 15 mg/kg, pre- and post-dosing periods): No clinical signs were observed
